“Also recorded” adds a separate entry of the source. Like-named read-outs stand apart in the source and are kept apart here.
Assays:
[1] = biological target: GST-Mcl-1 / biotinylated Bim BH3 peptide (Homo sapiens, UniProt Q07820); test: ELISA, disruption of Mcl-1 binding to Bim; details: for fold potency relative to 1 against Mcl-1/Bim: compared with 1
Protocol: (§1) ELISAs were performed using a similar procedure as previously described. Briefly, 40 nM of biotinylated Bim BH3 peptide (Biomatik, Wilmington, DE, USA) in SuperBlock blocking buffer (Thermo Scientific Pierce, Rockford, IL, USA) was incubated in high-binding capacity streptavidin-coated plates (Thermo Scientific Pierce, Rockford, IL, USA) for 2 h. Compounds were diluted in 120 µL of PBS containing 10 nM of GST-Mcl-1 or GST-Bcl-xL in 1.5-mL tubes for 15 min. Wells were washed with wash buffer (PBS containing 0.05% Tween-20) and then 100 µL of the compound/GST-protein mixture was transferred to the wells. The plates were incubated for 2 h, and then, the wells were washed with wash buffer. HRP-conjugated anti-GST antibody (Bethyl Laboratories, Montgomery, TX, USA) was diluted 1:2000 in SuperBlock, and 100 µL were transferred to each well. The plate was incubated for 1 h, and then, the wells were washed with wash buffer followed by PBS. One hundred microliters of SureBlue TMB Microwell Peroxidase Substrate (VWR International, Radnor, PA, USA) was added to each well, and the plates were developed for 5–10 min. One hundred microliters of 1 N HCl was added to each well to stop the reaction, and the absorbance was read at 450 nm using a µQuant plate reader (Bio-Tek Instruments, Winooski, VT, USA).

[2] = test system: Mcl-1, Bim and caspase 3 in MDA-MB-468 cells; test: Western blotting after treatment of intact human breast cancer cells; type: cell-based; details: 10 μM for 16 h
[3] = biological target: GST-Bcl-xL / biotinylated Bim BH3 peptide (Homo sapiens, UniProt Q07817); test: ELISA, disruption of Bcl-xL binding to Bim; details: for fold potency relative to 1 against Bcl-xL/Bim: compared with 1; for IC50: 10 nM GST-Bcl-xL, 40 nM biotinylated Bim BH3 peptide, read-out: IC50 against Bcl-xL/Bim binding
Protocol: as §1

Sequence of GST-Mcl-1 / biotinylated Bim BH3 peptide (Q07820 whole entry): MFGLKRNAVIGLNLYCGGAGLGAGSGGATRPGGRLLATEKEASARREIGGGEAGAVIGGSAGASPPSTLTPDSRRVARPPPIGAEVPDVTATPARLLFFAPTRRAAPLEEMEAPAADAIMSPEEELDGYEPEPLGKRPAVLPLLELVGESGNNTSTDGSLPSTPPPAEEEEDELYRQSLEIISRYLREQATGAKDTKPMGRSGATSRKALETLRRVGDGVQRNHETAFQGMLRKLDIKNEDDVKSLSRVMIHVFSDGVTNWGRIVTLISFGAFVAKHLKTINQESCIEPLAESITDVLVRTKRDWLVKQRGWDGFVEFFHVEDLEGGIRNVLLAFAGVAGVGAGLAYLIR
Sequence of GST-Bcl-xL / biotinylated Bim BH3 peptide (Q07817 whole entry): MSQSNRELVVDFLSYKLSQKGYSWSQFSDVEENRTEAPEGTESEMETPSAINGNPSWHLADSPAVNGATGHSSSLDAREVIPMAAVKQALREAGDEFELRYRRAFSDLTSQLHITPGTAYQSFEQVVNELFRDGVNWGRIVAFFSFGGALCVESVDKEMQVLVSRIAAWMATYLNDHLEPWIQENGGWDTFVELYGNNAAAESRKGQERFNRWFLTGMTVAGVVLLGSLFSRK

Row | SMILES | cleavage of caspase 3 [2] | levels of Mcl-1 and Bim [2] | activity against Mcl-1/Bim (in words) ([1]; ELISA) | other results
1 | O=C(c1ccccc1O)c1[nH]c(Cl)c(Cl)c1-n1c(C(=O)c2ccccc2O)cc(Cl)c1Cl (racemic) [Compound 1, (±)-marinopyrrole A, reference compound] | cleave caspase 3 | able to decrease |  | IC50 [1]: 8.9 µM
2 | O=C1c2ccc(OS(=O)(=O)C(F)(F)F)cc2Oc2c(Cl)cc(C(=O)c3ccc(OS(=O)(=O)C(F)(F)F)cc3O)n2-c2c1[nH]c(Cl)c2Cl [Compound 3, 3-Hydroxy-4-(2,3,7-trichloro-13-oxo-10-(((trifluoromethyl)sulfonyl)oxy)-1,13 dihydrobenzo[g]di-pyrrolo[2,1-b:3′,2′-d][1,3]oxazocine-5-carbonyl)phenyl trifluoromethanesulfonate] |  |  |  | fold potency relative to 1 against Mcl-1/Bim ([1]; ELISA): six; fold potency relative to 1 against Bcl-xL/Bim [3]: seven-fold higher potency
3 | COC(=O)c1ccc(C(=O)c2cc(Cl)c3n2-c2c([nH]c(Cl)c2Cl)C(=O)c2ccc(C(=O)OC)cc2O3)c(O)c1 [Compound 4, Methyl-2,3,7-trichloro-5-(2-hydroxy-4-(methoxycarbonyl)benzoyl)-13-oxo-1,13-dihydrobenzo[g]-dipyrrolo[2,1-b:3′,2′-d][1,3]oxazocine-10-carboxylate] |  |  |  | fold potency relative to 1 against Mcl-1/Bim ([1]; ELISA): two-fold more potent; fold potency relative to 1 against Bcl-xL/Bim [3]: seven-fold more potent
4 | COC(=O)c1ccc(C(=O)c2[nH]c(Cl)c(Cl)c2-n2c(C(=O)c3ccc(C(=O)OC)cc3O)cc(Cl)c2Cl)c(O)c1 [Compound 4a, dimethyl-4,4′-(4,4′,5,5′-tetrachloro-1′H-[1,3′-bipyrrole]-2,2′-dicarbonyl)bis(3-hydroxybenzoate)] | cleavage of caspase 3 | significant decrease | showed activity | 
5 | CCOP(=O)(OCC)c1ccc(C(=O)c2cc(Cl)c3n2-c2c([nH]c(Cl)c2Cl)C(=O)c2ccc(P(=O)(OCC)OCC)cc2O3)c(O)c1 [Compound 5, 3-Hydroxy-4-(2,3,7-trichloro-13-oxo-10-(diethylphosphonyl)-1,13-dihydrobenzo[g]dipyrrolo[2,1-b:3′,2′-d][1,3]oxazocine-5-carbonyl)diethyl phosphonate] |  |  |  | IC50 ([1]; ELISA, 10 nM GST-Mcl-1, 40 nM biotinylated Bim BH3 peptide, read-out: IC50 to disrupt the binding of Mcl-1 to Bim): > 100 µM; IC50 [3]: > 100 µM
6 | CCOP(=O)(OCC)c1ccc(C(=O)c2[nH]c(Cl)c(Cl)c2-n2c(C(=O)c3ccc(P(=O)(OCC)OCC)cc3O)cc(Cl)c2Cl)c(O)c1 [Compound 5a, tetraethyl((4,4′,5,5′-tetrachloro-1′H-[1,3′-bipyrrole]-2,2′-dicarbonyl)bis(3-hydroxy-4,1-phenylene))bis(phosphonate)] | little effect | little effect | showed activity | IC50 [3]: > 100 µM
7 | O=C(O)c1ccc(C(=O)c2[nH]c(Cl)c(Cl)c2-n2c(C(=O)c3ccc(C(=O)O)cc3O)cc(Cl)c2Cl)c(O)c1 [Compound 7a, 4,4′-(4,4′,5,5′-Tetrachloro-1′H-[1,3′-bipyrrole]-2,2′-dicarbonyl)bis(3-hydroxybenzoic acid)] | little caspase 3 cleavage | did not decrease | lower activity than 1; also recorded: less active | activity against Bcl-xL/Bim (in words) [3]: little activity; also recorded: less active; melting point: 190.5 to 192 °C
8 | O=C(c1ccc(P(=O)(O)O)cc1O)c1[nH]c(Cl)c(Cl)c1-n1c(C(=O)c2ccc(P(=O)(O)O)cc2O)cc(Cl)c1Cl [Compound 8a, ((4,4′,5,5′-Tetrachloro-1′H-[1,3′-bipyrrole]-2,2′-dicarbonyl)bis(3-hydroxy-4,1-phenylene))diphosphonic acid] | little effect | little effect | slightly less potent than 1; also recorded: less active | activity against Bcl-xL/Bim (in words) [3]: less active

Source: article PMC3967213, “Cyclic Marinopyrrole Derivatives as Disruptors of Mcl-1 and Bcl-xL Binding to Bim” (Marine Drugs, 2014)
